Results as given in article PMC9387934, “Randomized single oral dose phase 1 study of safety, tolerability, and pharmacokinetics of Iminosugar UV-4 Hydrochloride (UV-4B) in healthy subjects” (PLoS Neglected Tropical Diseases, 2022).
“And” between values parts separate entries of the source, which are not always exact repeats. Equal entries are not always repeated.

Experiment: Phase 1a single ascending dose study: UV-4 in pooled urine, urinary recovery and renal clearance
Assay type: in vivo, human
Method: Serial blood samples were collected at pre-dose (0 hour) and 0.5, 1, 1.5, 2, 2.5, 3, 4, 6, 9, 12, 18, 24, 36, and 48 hours post-dose for assessment of UV-4 concentrations in plasma. Pooled urine samples were collected at pre-dose (-12 to 0 hour) and from 0 to 6, 6 to 12, 12 to 24, and 24 to 48 hours post-dose for assessment of UV-4 concentrations in urine. Plasma and urine concentrations of UV-4 were determined by means of validated, sensitive, and specific high-performance liquid chromatography/tandem mass spectrometric (LC-MS/MS) assays. UV-4 plasma and urine concentrations and PK parameters were listed and summarized by dose, as appropriate. Only the 48 subjects who received active investigational product were included in the PK analysis population.
8.2.3 Specimen Preparation, Handling, and Shipping
8.2.3.1 Instructions for Specimen Preparation, Handling, and Storage
The collected PK blood samples (2 mL) will be placed on ice after blood draw, and within 1 hour centrifuged at room temperature at approximately 3000 revolutions per minute for 15 minutes. Plasma will then be harvested and split into 4 aliquots of approximately 250 μ L and stored frozen at -20°C until shipped.
Urine samples (approximately 10 mL) for determination of UV-4 concentrations in urine will be taken from the total volume provided during each collection period. The total volume of each urine collection will be recorded along with the start/stop time for each urine collection interval.
Analysis of plasma and urine for UV-4 will be performed by the qualified bioanalytical laboratory, Quintiles Bioservices, Inc., Ithaca, New York 14950. Instructions for the proper preparation, handling, storage and shipping of specimens will be provided separately in a study-specific laboratory manual (i.e., Biopacket).
8.2.3.2 Specimen Shipment […]
The following single-dose urine PK parameters will be estimated from the UV-4 urine concentration-time data collected, as appropriate:
Ae Amount of UV-4 excreted in urine unchanged, calculated for each collection interval and cumulatively across intervals fe Fraction of UV-4 excreted in urine unchanged, calculated for each collection interval and cumulatively across intervals […]
Additional UV-4 PK parameters may be calculated at the discretion of the […]
Plasma concentrations and plasma and urine PK parameters will be summarized by treatment using descriptive statistics, as appropriate. Figures for the arithmetic mean (and SD) concentration-time data will be presented for all doses on both a linear and semi-logarithmic scale. Individual concentration-time data will be graphically presented on linear and semi-logarithmic scales. Scatter plots of individual and geometric mean PK parameters versus dose will be presented. Additional graphical presentations of PK data may be added at the discretion of the PK analyst.
Dose proportionality of Cmax, AUC(0-last), and AUC(0-inf) will be assessed graphically and statistically using the power model approach with the logarithm of PK parameters AUC(0-inf) and Cmax as the dependent variables and the logarithm of the dose as the independent variable: ([AUC(0-inf), AUC(0-last), or Cmax]=α *doseβ).
11.4.7 Deviation from Original Analysis Plan
Deviations from the formal statistical analysis plan will be noted in the final Clinical Study

Structure (SMILES): COCCCCCCCCCN1C[C@H](O)[C@@H](O)[C@H](O)[C@H]1CO [UV4]
- CONCENTRATION UV4 in human urine (Cohort 1, nominal day 1, nominal hour 0 (pre-dose), individual subjects): <LLOQ (0.500) ng/mL
- CONCENTRATION UV4 in human urine (Cohort 1, nominal day 1, nominal hour 6, individual subjects): 650 ng/mL and 868 ng/mL
- CONCENTRATION UV4 in human urine (Cohort 1, nominal day 1, nominal hour 12, individual subjects): 414 ng/mL and 455 ng/mL
- CONCENTRATION UV4 in human urine (Cohort 1, nominal day 2, nominal hour 24, individual subjects): 99.1 ng/mL and 451 ng/mL
- CONCENTRATION UV4 in human urine (Cohort 1, nominal day 2, nominal hour 48, individual subjects): 74.6 ng/mL and 166 ng/mL
- CONCENTRATION UV4 in human urine (Cohort 3, nominal day 1, nominal hour 0 (pre-dose), individual subjects): <LLOQ (0.500) ng/mL
- CONCENTRATION UV4 in human urine (Cohort 3, nominal day 1, nominal hour 6, individual subjects): 6240 ng/mL and 8650 ng/mL and 11700 ng/mL
- CONCENTRATION UV4 in human urine (Cohort 3, nominal day 1, nominal hour 12, individual subjects): 8820 ng/mL and 2090 ng/mL and 1200 ng/mL and 11200 ng/mL
- CONCENTRATION UV4 in human urine (Cohort 3, nominal day 2, nominal hour 24, individual subjects): 3300 ng/mL and 754 ng/mL and 614 ng/mL and 3690 ng/mL
- CONCENTRATION UV4 in human urine (Cohort 3, nominal day 2, nominal hour 48, individual subjects): 721 ng/mL and 248 ng/mL and 147 ng/mL and 900 ng/mL
- CONCENTRATION UV4 in human urine (Cohort 4, nominal day 1, nominal hour 0 (pre-dose), individual subjects): <LLOQ (0.500) ng/mL and 1.11 ng/mL
- CONCENTRATION UV4 in human urine (Cohort 4, nominal day 1, nominal hour 6, individual subjects): 46400 ng/mL and 48400 ng/mL and 30900 ng/mL and 140000 ng/mL and 54900 ng/mL and 36000 ng/mL
- CONCENTRATION UV4 in human urine (Cohort 4, nominal day 1, nominal hour 12, individual subjects): 3970 ng/mL and 24500 ng/mL and 26000 ng/mL and 15000 ng/mL and 33100 ng/mL and 11200 ng/mL
- CONCENTRATION UV4 in human urine (Cohort 4, nominal day 2, nominal hour 24, individual subjects): 1230 ng/mL and 7560 ng/mL and 8120 ng/mL and 8370 ng/mL and 4550 ng/mL and 3920 ng/mL
- CONCENTRATION UV4 in human urine (Cohort 4, nominal day 2, nominal hour 48, individual subjects): 367 ng/mL and 2090 ng/mL and 1260 ng/mL and 1810 ng/mL and 473 ng/mL and 648 ng/mL
- CONCENTRATION UV4 in human urine (Cohort 5, nominal day 1, nominal hour 0 (pre-dose), individual subjects): <LLOQ (0.500) ng/mL
- CONCENTRATION UV4 in human urine (Cohort 5, nominal day 1, nominal hour 6, individual subjects): 122000 ng/mL and 104000 ng/mL and 75800 ng/mL and 62800 ng/mL and 65800 ng/mL and 68800 ng/mL
- CONCENTRATION UV4 in human urine (Cohort 5, nominal day 1, nominal hour 12, individual subjects): 17100 ng/mL and 26900 ng/mL and 16200 ng/mL and 22000 ng/mL and 21200 ng/mL and 18200 ng/mL
- CONCENTRATION UV4 in human urine (Cohort 5, nominal day 2, nominal hour 24, individual subjects): 5200 ng/mL and 6760 ng/mL and 4560 ng/mL and 7550 ng/mL and 11900 ng/mL and 7200 ng/mL
- CONCENTRATION UV4 in human urine (Cohort 5, nominal day 2, nominal hour 48, individual subjects): 706 ng/mL and 961 ng/mL and 775 ng/mL and 2920 ng/mL and 2030 ng/mL and 1860 ng/mL
- CONCENTRATION UV4 in human urine (Cohort 6, nominal day 1, nominal hour 0 (pre-dose), individual subjects): <LLOQ (0.500) ng/mL
- CONCENTRATION UV4 in human urine (Cohort 6, nominal day 1, nominal hour 6, individual subjects): 357000 ng/mL and 97600 ng/mL and 326000 ng/mL and 75900 ng/mL and 182000 ng/mL and 126000 ng/mL
- CONCENTRATION UV4 in human urine (Cohort 6, nominal day 1, nominal hour 12, individual subjects): 35000 ng/mL and 12100 ng/mL and 104000 ng/mL and 38000 ng/mL and 15200 ng/mL and 19200 ng/mL
- CONCENTRATION UV4 in human urine (Cohort 6, nominal day 2, nominal hour 24, individual subjects): 6830 ng/mL and 2550 ng/mL and 4060 ng/mL and 7760 ng/mL and 6220 ng/mL and 12700 ng/mL
- CONCENTRATION UV4 in human urine (Cohort 6, nominal day 2, nominal hour 48, individual subjects): 1470 ng/mL and 442 ng/mL and 1480 ng/mL and 1390 ng/mL and 830 ng/mL
